Experimental data taken from patent US7951364B2, “CaR receptor as a mediator of migratory cell chemotaxis and/or chemokinesis” (The General Hospital Corporation, priority 2000, dated 2011).

Tests used:
CD4 = settings: varying Ca^++ concentration
Procedure: (§1) Chemokine receptor expression and flow cytometric analysis. Purified monocytes were incubated in a Ca^++-free medium supplemented with 1 mM, 3 mM or 5 mM CaCl2 or with 1.5 mM CaCl2 plus 1 μM NPS R-467 or S-467. Cells were washed once in PBS with 1% FCS and resuspended in 100 μl of Ca^++-free PBS. Monoclonal antibody against the CaR was added to the cells and incubated alone or with the CaR peptide for 30 min at room temperature. Cells were washed with PBS containing 1% FCS, resuspended in PBS with 1% FCS and incubated for 15 min at room temperature with anti-mouse IgG conjugated to FITC. The cells were washed again and conjugated monoclonal antibody [anti-CXCR4, anti-CCR5 (Pharmingen, San Diego, Calif.); anti-CCR2 (R&D, Minneapolis, Minn.); anti-CD14 (Becton Dickinson, San Jose, Calif.); or anti-CD4 (Becton Dickinson, San Jose, Calif.)] was added and incubated for 15 min at room temperature. Stained cells were fixed with 1% paraformaldehyde and assayed within 24 hrs. Flow cytometric analysis was performed using a dual laser FACSCalibur (Becton Dickinson Immunocytometry Systems, San Jose, Calif.) calibrated using 2 μm Calibrite beads (Becton Dickinson). Data acquisition and analysis were performed using CellQuest software (Becton Dickinson).

CXCR-4 = settings: elevated Ca^++
Procedure: as §1

CCR-5 = settings: elevated Ca^++
Procedure: as §1

CD14^+ monocytes = assay: Transmigration assay (monocyte chemotaxis, transwell); type: cell-based, human
Procedure: Preparation of peripheral blood CD14^+ monocytes. Low density cells were isolated from human and mouse peripheral blood using Ficoll-Hypaque (Pharmacia, Piscataway, N.J.). CD14^+ monocytes were purified by sorting on FACSVantage (Becton Dickinson, San Jose, Calif.) based on CD14 expression. Purified cells were incubated in either calcium-free medium (Hanks' Balanced Salt Solution 1×, CellGro, Hermdon. VA) or Iscove's Medium 1×(Mod) (CellGro, Herndon, Va.) which contains 1.5 mM Ca++. […] Cells were incubated for up to 24 hours in 5% CO2 humidified air. Monocytes were then detached from the plate using a cell scraper. All calcium concentrations indicated in the presentation of the data represent the total Ca^++ present in the basal medium plus any added Ca^++.
Transmigration assays. Transwells (5 μm pore size polycarbonate membrane, 12 mm diameter) (Costar, Corning, N.Y.) were used to assess cell migration using an established methodology (25). The concentration of Ca^++ in IMDM (CellGro, Herndon, Va.) in the upper and lower chambers of the transwell were adjusted according to a checkerboard analysis of chemotaxis. Calcium concentrations varied from 0 mM to 6.5 mM. Purified monocytes (1×10^4) were then placed in the top chamber with 150 μl of IMDM (CellGro, Hemdon, Va.). 500 μl of the medium was added to the bottom of the well and supplemented with varying concentrations of Ca^++ or with Ca^++ plus 10 ng/ml of MCP-1, 100 ng/ml of SDF-1α or 10 ng/ml of MIP-1α (PeproTech, Rocky Hills, N.Y.). Cells were incubated at 37° C. for 3 hours. To study inhibition of chemotaxis, cells were subsequently incubated with wortmannin (1 μM for 20 minutes at 37° C.), herbimycin (1 μM for 20 minutes at 37° C.) or genistein (1 μg/ml for 20 minutes at 37° C.), before their use in transmigration assays. At the end of the experiment, cells were then harvested from the lower chamber and counted using a hemocytometer.

[1] = molecular target: calcium-sensing receptor (CaR) (Homo sapiens, UniProt P41180); settings: cited from earlier work
[2] = system: monocytes (Mac-1 positive mononuclear cells); assay: Biologic activity in vivo: subcutaneous injection, monocyte infiltration at injection site; parameters: species or system C57BL/6 mice; settings: tissue excised 18 hours later, CaCl2 5.0 mM, NPS R-467 10 μM
Procedure: Biologic activity of ionic calcium in vivo. C57BL/6 mice (Jackson Laboratories) were injected subcutaneously at a marked, shaved spot on the abdomen with 20 μl of 5 mM CaCl2 or 20 μl of MCP-1 at a concentration of 10 ng/ml, with a combination of MCP-1 and 5 mM CaCl2 or with 10 μM NPS R-467 in PBS. Control mice were injected subcutaneously with 20 μl PBS alone. All subcutaneously injected agents contained less than 0.004 ng/ml of LPS by the limulus assay (Sigma) as previously described (Bleul, C. C., et al., J Exp Med, 1996, 184:1101-1109). Mice were sacrificed by CO2 asphyxiation 18 hours after injection, and injection sites were excised, snap-frozen and 4 μm cryosections were obtained and stained with hematoxylin and eosin. Immunocytochemistry was performed on the frozen sections using alkaline phosphatase-conjugated Mac-1 antibody (Pharmingen) as previously described and assessed by light microscopy (Bleul, C. C., et al., supra).

Sequence of calcium-sensing receptor (CaR) (P41180 20-1078): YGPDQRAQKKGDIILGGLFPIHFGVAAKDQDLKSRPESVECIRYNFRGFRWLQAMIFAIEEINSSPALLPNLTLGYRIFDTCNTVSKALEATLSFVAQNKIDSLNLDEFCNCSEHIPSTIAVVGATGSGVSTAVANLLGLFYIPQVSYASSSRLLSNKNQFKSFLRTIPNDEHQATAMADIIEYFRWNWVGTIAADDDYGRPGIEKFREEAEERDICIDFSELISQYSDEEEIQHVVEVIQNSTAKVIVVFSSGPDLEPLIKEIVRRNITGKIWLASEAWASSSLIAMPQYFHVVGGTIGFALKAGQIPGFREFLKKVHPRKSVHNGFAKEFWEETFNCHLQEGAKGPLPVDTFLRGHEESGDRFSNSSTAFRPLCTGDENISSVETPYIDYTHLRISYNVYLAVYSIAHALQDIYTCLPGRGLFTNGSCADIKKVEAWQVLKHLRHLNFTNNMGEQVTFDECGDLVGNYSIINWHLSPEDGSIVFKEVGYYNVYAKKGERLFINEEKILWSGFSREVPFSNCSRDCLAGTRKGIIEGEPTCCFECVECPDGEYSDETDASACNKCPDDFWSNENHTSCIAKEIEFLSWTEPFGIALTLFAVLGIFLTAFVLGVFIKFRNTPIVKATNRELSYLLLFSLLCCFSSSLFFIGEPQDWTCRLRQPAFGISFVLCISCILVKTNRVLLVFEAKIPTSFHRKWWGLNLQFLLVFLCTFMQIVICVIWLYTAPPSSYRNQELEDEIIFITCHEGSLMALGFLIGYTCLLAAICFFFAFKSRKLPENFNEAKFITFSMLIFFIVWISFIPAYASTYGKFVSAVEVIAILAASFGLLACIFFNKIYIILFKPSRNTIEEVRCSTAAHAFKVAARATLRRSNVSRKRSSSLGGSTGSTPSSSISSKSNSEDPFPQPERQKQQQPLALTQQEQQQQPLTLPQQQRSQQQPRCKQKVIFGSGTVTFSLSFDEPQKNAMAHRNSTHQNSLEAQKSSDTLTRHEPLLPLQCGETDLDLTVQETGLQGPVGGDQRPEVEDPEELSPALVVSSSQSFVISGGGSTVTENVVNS

[Ca+2].[Cl-].[Cl-] [Ca^++, calcium chloride]
Fluorescence intensity of anti-CD4 antibody staining (CD4): did not vary | CXCR-4 expression (CXCR-4): increased but did not achieve statistical significance | CCR-5 median fluorescence intensity (CCR-5): failed to demonstrate any change | Ca^++ concentration giving maximal chemotaxis (CD14^+ monocytes): 4.5 mM | Ca^++ concentration giving peak migration in response to MCP-1 (CD14^+ monocytes): 4.5 mM | Ca^++ concentration at which activation of the receptor is maximal [1]: 5 mM | Accumulation of mononuclear cells staining positive for Mac-1 at injection site [2]: Accumulation
